Experimental data published in US20110275707A1, “SUBSTITUTED AFPO (6-ARYL-4H-FURO[3,2-C]PYRAN-4-ONE) DERIVATIVES AS ANTI-CANCER AGENTS” (priority 2008, published 2011).

Test system: not given
Experiment: not given
Conditions: not given

SMILES | melting point
Cc1coc2cc(-c3ccccc3)oc(=O)c12 [Compound 9, 3-Methyl-6-phenyl-4H-furo[3,2-c]pyran-4-one] | 105 to 107 °C
Cc1cccc(-c2cc3occ(C)c3c(=O)o2)c1 [Compound 10, 3-Methyl-6-m-tolyl-4H-furo[3,2-c]pyran-4-one] | 135 to 137 °C
COc1cccc(-c2cc3occ(C)c3c(=O)o2)c1 [Compound 11, 6-(3-Methoxyphenyl)-3-methyl-4H-furo[3,2-c]pyran-4-one] | 119 to 121 °C
CCOc1cccc(-c2cc3occ(C)c3c(=O)o2)c1 [Compound 12, 6-(3-Ethoxyphenyl)-3-methyl-4H-furo[3,2-c]pyran-4-one] | 128 to 130 °C
Cc1coc2cc(-c3cccc(O)c3)oc(=O)c12 [Compound 13, 6-(3-Hydroxyphenyl)-3-methyl-4H-furo[3,2-c]pyran-4-one] | 225 to 227 °C
Cc1coc2cc(-c3cccc(F)c3)oc(=O)c12 [Compound 14, 6-(3-Fluorophenyl)-3-methyl-4H-furo[3,2-c]pyran-4-one] | 158 to 160 °C
Cc1coc2cc(-c3ccc(F)cc3)oc(=O)c12 [Compound 15, 6-(4-Fluorophenyl)-3-methyl-4H-furo[3,2-c]pyran-4-one] | 175 to 177 °C
Cc1ccc(-c2cc3occ(C)c3c(=O)o2)cc1 [Compound 16, 3-Methyl-6-p-tolyl-4H-furo[3,2-c]pyran-4-one] | 153 to 155 °C
COc1ccc(-c2cc3occ(C)c3c(=O)o2)cc1 [Compound 17, 6-(4-Methoxyphenyl)-3-methyl-4H-furo[3,2-c]pyran-4-one] | 146 to 148 °C
Cc1coc2cc(-c3ccc(O)cc3)oc(=O)c12 [Compound 18, 6-(4-Hydroxyphenyl)-3-methyl-4H-furo[3,2-c]pyran-4-one] | 258 to 260 °C

More lines, now with the values ahead:

melting point | SMILES
111 to 113 °C | COc1cccc(-c2cc3occ(C)c3c(=O)o2)c1OC [Compound 19, 6-(2,3-Dimethoxyphenyl)-3-methyl-4H-furo[3,2-c]pyran-4-one]
239 to 241 °C | Cc1coc2cc(-c3cccc(O)c3O)oc(=O)c12 [Compound 20, 6-(2,3-Dihydroxyphenyl)-3-methyl-4H-furo[3,2-c]pyran-4-one]
182 to 184 °C | Cc1ccc(-c2cc3occ(C)c3c(=O)o2)cc1C [Compound 21, 6-(3,4-Dimethylphenyl)-3-methyl-4H-furo[3,2-c]pyran-4-one]
154 to 156 °C | COc1ccc(-c2cc3occ(C)c3c(=O)o2)cc1OC [Compound 22, 6-(3,4-Dimethoxyphenyl)-3-methyl-4H-furo[3,2-c]pyran-4-one]
259 to 261 °C | Cc1coc2cc(-c3ccc(O)c(O)c3)oc(=O)c12 [Compound 23, 6-(3,4-Dihydroxyphenyl)-3-methyl-4H-furo[3,2-c]pyran-4-one]
171 to 173 °C | Cc1cc(C)cc(-c2cc3occ(C)c3c(=O)o2)c1 [Compound 24, 6-(3,5-Dimethylphenyl)-3-methyl-4H-furo[3,2-c]pyran-4-one]
153 to 155 °C | COc1cc(OC)cc(-c2cc3occ(C)c3c(=O)o2)c1 [Compound 25, 6-(3,5-Dimethoxyphenyl)-3-methyl-4H-furo[3,2-c]pyran-4-one]
> 300 °C | Cc1coc2cc(-c3cc(O)cc(O)c3)oc(=O)c12 [Compound 26, 6-(3,5-Dihydroxyphenyl)-3-methyl-4H-furo[3,2-c]pyran-4-one]
201 to 203 °C | COc1cc(-c2cc3occ(C)c3c(=O)o2)cc(OC)c1OC [Compound 27, 3-Methyl-6-(3,4,5-trimethoxyphenyl)-4H-furo[3,2-c]pyran-4-one]
131 to 133 °C | CCc1coc2cc(-c3cc(OC)cc(OC)c3)oc(=O)c12 [Compound 28, 6-(3,5-Dimethoxyphenyl)-3-ethyl-4H-furo[3,2-c]pyran-4-one]
163 to 165 °C | COc1cc(OC)cc(-c2cc3oc(C)c(C)c3c(=O)o2)c1 [Compound 29, 6-(3,5-Dimethoxyphenyl)-2,3-dimethyl-4H-furo[3,2-c]pyran-4-one]
147 to 149 °C | COc1cc(OC)cc(-c2cc3occ(C)c3c(=S)o2)c1 [Compound 30, 6-(3,5-Dimethoxyphenyl)-3-methyl-4H-furo[3,2-c]pyran-4-thione]

Test system: SK-BR-3 (HER2+) human tumor cell line
Experiment: Cell growth inhibition assay (SRB), SK-BR-3
Assay type: cell-based
Conditions: SK-BR-3, compared with 1
Method: Cell Growth Inhibition Assay. All stock cultures are grown in T-25 flasks. Freshly trypsinized cell suspensions were seeded in 96-well microliter plates with compounds added from DMSO-diluted stock. The plates were incubated for an additional 72 h after attachment and drug addition, and the assay was terminated by 10% TCA. Then, 0.4% SRB dye in 1% HOAc was added to stain the cells for 10 minutes. Unbound dye was removed by repeated washing with 1% HOAc and the plates were air dried. Bound stain was subsequently solved with 10 mM trizma base, and the absorbance read at 515 nm. Growth inhibition of 50% (GI50) is calculated as the drug concentration, which caused a 50% reduction in the net protein increase in control cells during the drug incubation. The mean ED50 is the concentration of agent that reduces cell growth by 50% under the experimental conditions and is the average from at least two independent determinations. Variation between replicates was no more than 5% of the mean. The following human tumor cell lines were used in the assay: A549 (non small cell lung cancer), ZR-75-1 (estrogen receptor positive breast cancer), MDA MB-231 (estrogen receptor negative breast cancer), SKBR-3 (estrogen receptor negative, HER-2 over-expressing breast cancer), KB (nasopharyngeal carcinoma), KB-VIN (vincristine-resistant KB subline). […]

SMILES | potency against SK-BR-3 relative to 1
COc1cc(OC)cc(-c2cc3occ(C)c3c(=O)o2)c1 [Compound 25, 6-(3,5-Dimethoxyphenyl)-3-methyl-4H-furo[3,2-c]pyran-4-one] | approximately threefold
